Measurements published in patent US9732085B2, “Pyridinone and pyrimidinone derivatives as factor Xia” (ONO PHARMACEUTICAL CO., LTD., priority 2011, dated 2017).
pIC50: −log10 of the molar value. Structures can show the parent of a compound that is named as a salt. Where two headings read alike, the source gives them in different places.

Target: Human Factor XIa (Homo sapiens (Human), UniProt P03951)
Assay: Factor XIa enzyme activity (chromogenic substrate S-2366)
Format: biochemical
Conditions: read-out: In vitro FXIa inhibitory activity IC50
Experimental: Inhibitory activities of compounds of the present invention against factor XIa, Xa, XIIa, IXa, VIIa, plasma kallikrein or thrombin were evaluated using appropriate purified proteases and synthetic substrates. The rate of hydrolysis of the chromogenic substrate by the relevant protease was continuously measured at 405 nm.
Inhibitory activity against each enzyme was calculated as % inhibition using the equation described below. % Inhibition=[[(rate without compound)−(rate with compound)](rate without compound)]×100%. Each half maximal inhibitory concentration (IC50) value was determined by plotting the concentration of compound of the invention against the % inhibition. (1-1) Factor XIa Enzyme Activity
Human Factor XIa (Haematologic Technologies Inc.) activity was measured at an enzyme concentration of 0.1 U/mL in 150 mM NaCl, 5 mM KCl, 1 mg/mL PEG6000, 50 mM HEPES-NaOH (pH7.4) with 300 μM S-2366 (pyroGlu-Pro-Arg-pNA, Chromogenix).

[1] = human Factor XIa 0.1 U/mL, 300 μM S-2366, pH7.4

Sequence of Human Factor XIa (P03951 388-625): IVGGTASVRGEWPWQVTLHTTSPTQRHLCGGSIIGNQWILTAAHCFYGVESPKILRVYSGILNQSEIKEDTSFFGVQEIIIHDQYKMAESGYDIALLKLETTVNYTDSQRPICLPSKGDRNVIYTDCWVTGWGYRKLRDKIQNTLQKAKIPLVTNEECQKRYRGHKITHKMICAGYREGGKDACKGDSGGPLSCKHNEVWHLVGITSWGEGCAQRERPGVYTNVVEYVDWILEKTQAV
Sequence of Human Factor XIa (P03951 19-387 partner): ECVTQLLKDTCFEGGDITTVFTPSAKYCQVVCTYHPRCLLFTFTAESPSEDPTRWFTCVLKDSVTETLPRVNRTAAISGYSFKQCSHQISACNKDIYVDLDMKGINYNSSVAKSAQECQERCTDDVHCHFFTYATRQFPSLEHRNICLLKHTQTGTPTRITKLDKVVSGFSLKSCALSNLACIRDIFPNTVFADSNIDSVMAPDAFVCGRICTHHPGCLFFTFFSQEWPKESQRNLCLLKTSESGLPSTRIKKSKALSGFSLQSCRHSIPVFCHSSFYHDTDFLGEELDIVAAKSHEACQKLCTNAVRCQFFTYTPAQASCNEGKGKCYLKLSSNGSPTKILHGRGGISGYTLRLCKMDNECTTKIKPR

pIC50 [1]	pIC50 (Table 2, comparison with comparative compounds)	SMILES
8.34	–	COCCOC(=O)Nc1ccc(-c2cnc(C3CCc4cc(-c5cc(Cl)ccc5-n5cnnn5)cc(=O)n43)[nH]2)cc1 (centres unmarked) [129(2), 2-methoxyethyl[4-(2-{7-[5-chloro-2-(1H-tetrazol-1-yl)phenyl]-5-oxo-1,2,3,5-tetrahydro-3-indolizinyl}-1H-imidazol-5-yl)phenyl]carbamate]
–	< 5.00	COc1cc(Nc2ccc3n(c2=O)C(c2ccc(F)cc2)CCC3)ccc1-n1cnc(C)c1 (centres unmarked) [Comp. Ex 4, reference compound]
8.14	–	CCC(c1nc(-c2ccc(NC(=O)OC)cc2)c(Cl)[nH]1)n1ccc(-c2cc(Cl)ccc2-n2cnnn2)cc1=O (centres unmarked) [Example 60, methyl{4-[5-chloro-2-(1-{4-[5-chloro-2-(1H-tetrazol-1-yl)phenyl]-2-oxo-1(2H)-pyridinyl}propyl)-1H-imidazol-4-yl]phenyl}carbamate]
7.85	–	COC(=O)Nc1ccc(-c2cnc(C(C)n3ccc(-c4cc(Cl)ccc4-n4cnnn4)cc3=O)[nH]2)cc1 (centres unmarked) [Example 61, methyl{4-[2-(1-{4-[5-chloro-2-(1H-tetrazol-1-yl)phenyl]-2-oxo-1(2H)-pyridinyl}ethyl)-1H-imidazol-5-yl]phenyl}carbamate]
8.41	–	O=C1CCc2cc(-c3c[nH]c(C4CCc5cc(-c6cc(Cl)ccc6-n6cnnn6)cc(=O)n54)n3)ccc2N1 (centres unmarked) [Example 86, 6-(2-{7-[5-chloro-2-(1H-tetrazol-1-yl)phenyl]-5-oxo-1,2,3,5-tetrahydro-3-indolizinyl}-1H-imidazol-4-yl)-3,4-dihydro-2(1H)-quinolinone]
7.33	–	COC(=O)Nc1ccc(-c2cnc(C3CCc4cc(-c5cc(Cl)ccc5-n5cnnn5)cc(=O)n43)[nH]2)s1 (centres unmarked) [Example 181, methyl[5-(2-{7-[5-chloro-2-(1H-tetrazol-1-yl)phenyl]-5-oxo-1,2,3,5-tetrahydro-3-indolizinyl}-1H-imidazol-5-yl)-2-thienyl]carbamate]
8.82	–	Nc1ccc(-c2[nH]c([C@@H]3CCc4cc(-c5cc(Cl)ccc5-n5cnnn5)cc(=O)n43)nc2Cl)cn1 [Example 198, (3S)-3-[5-(6-amino-3-pyridinyl)-4-chloro-1H-imidazol-2-yl]-7-[5-chloro-2-(1H-tetrazol-1-yl)phenyl]-2,3-dihydro-5(1H)-indolizinone]
8.55	–	Nc1ccc(-c2cnc([C@@H]3CCc4cc(-c5cc(Cl)ccc5-n5cnnn5)cc(=O)n43)[nH]2)c(Cl)n1 [Example 210, (3S)-3-[5-(6-amino-2-chloro-3-pyridinyl)-1H-imidazol-2-yl]-7-[5-chloro-2-(1H-tetrazol-1-yl)phenyl]-2,3-dihydro-5(1H)-indolizinone]
8.42	–	Nc1ccc(-c2cnc([C@@H]3CCc4cc(-c5cc(Cl)ccc5-n5cnnn5)cc(=O)n43)[nH]2)c(F)n1 [Example 216, (3S)-3-[5-(6-amino-2-fluoro-3-pyridinyl)-1H-imidazol-2-yl]-7-[5-chloro-2-(1H-tetrazol-1-yl)phenyl]-2,3-dihydro-5(1H)-indolizinone]
7.96	–	COC(=O)Nc1ccc(-c2[nH]c([C@@H]3CCc4cc(-c5cc(Cl)ccc5-n5cnnn5)cc(=O)n43)nc2Cl)nc1 [Example 230, methyl[6-(4-chloro-2-{(3S)-7-[5-chloro-2-(1H-tetrazol-1-yl)phenyl]-5-oxo-1,2,3,5-tetrahydro-3-indolizinyl}-1H-imidazol-5-yl)-3-pyridinyl]carbamate]
8.32	–	COC(=O)Nc1ccc(-c2nc(Cl)c(C3CCc4cc(-c5cc(Cl)ccc5-n5cnnn5)cc(=O)n43)[nH]2)cc1 (centres unmarked) [Example 241, methyl[4-(4-chloro-5-{7-[5-chloro-2-(1H-tetrazol-1-yl)phenyl]-5-oxo-1,2,3,5-tetrahydro-3-indolizinyl}-1H-imidazol-2-yl)phenyl]carbamate]
7.77	–	COC(=O)Nc1ccc(-c2nnc(C3CCc4cc(-c5cc(Cl)ccc5-n5cnnn5)cc(=O)n43)[nH]2)cc1 (centres unmarked) [Example 245, methyl[4-(5-{7-[5-chloro-2-(1H-tetrazol-1-yl)phenyl]-5-oxo-1,2,3,5-tetrahydro-3-indolizinyl}-4H-1,2,4-triazol-3-yl)phenyl]carbamate]
8.21	–	COCCC(c1nc(Cl)c(-c2ccc(NC(=O)OC)cc2)[nH]1)n1ccc(-c2cc(Cl)ccc2-n2cnnn2)cc1=O (centres unmarked) [Example 264, methyl{4-[4-chloro-2-(1-{4-[5-chloro-2-(1H-tetrazol-1-yl)phenyl]-2-oxo-1(2H)-pyridinyl]-3-methoxypropyl)-1H-imidazol-5-yl}phenyl}carbamate]
7.96	–	COC(=O)Nc1ccc(-c2cnc([C@@H]3CSc4cc(-c5cc(Cl)ccc5-n5cnnn5)cc(=O)n43)[nH]2)cc1 [Example 270, methyl[4-(2-{(3R)-7-[5-chloro-2-(1H-tetrazol-1-yl)phenyl]-5-oxo-2,3-dihydro-5H-[1,3]thiazolo[3,2-a]pyridin-3-yl}-1H-imidazol-5-yl)phenyl]carbamate]
8.24	–	COC(=O)Nc1ccc(-c2cnc(C(Cc3cccnc3)n3ccc(-c4cc(Cl)ccc4-n4cnnn4)cc3=O)[nH]2)cc1 (centres unmarked) [Example 278, methyl(4-{2-[1-{4-[5-chloro-2-(1H-tetrazol-1-yl)phenyl]-2-oxo-1(2H)-pyridinyl}-2-(3-pyridinyl)ethyl]-1H-imidazol-5-yl}phenyl)carbamate]
8.60	–	COC(=O)Nc1ccc(-c2cnc([C@@H]3CCc4cc(-c5cc(Cl)ccc5-n5cc(C#N)nn5)cc(=O)n43)[nH]2)cc1 [Example 290, methyl[4-(2-{(3S)-7-[5-chloro-2-(4-cyano-1H-1,2,3-triazol-1-yl)phenyl]-5-oxo-1,2,3,5-tetrahydro-3-indolizinyl}-1H-imidazol-5-yl)phenyl]carbamate]
8.08	–	COC(=O)Nc1ccc(-c2cnc([C@@H]3CCc4cc(-c5cc(C)ccc5-n5cnnn5)cc(=O)n43)[nH]2)cc1 [Example 309, methyl[4-(2-{(3S)-7-[5-methyl-2-(1H-tetrazol-1-yl)phenyl]-5-oxo-1,2,3,5-tetrahydro-3-indolizinyl}-1H-imidazol-5-yl)phenyl]carbamate]
8.38	–	O=C(O)c1ccc(-c2cnc([C@@H]3CCc4cc(-c5cc(Cl)ccc5-n5cnnn5)cc(=O)n43)[nH]2)s1 [Example 347, 5-(2-{(3S)-7-[5-chloro-2-(1H-tetrazol-1-yl)phenyl]-5-oxo-1,2,3,5-tetrahydro-3-indolizinyl}-1H-imidazol-5-yl)-2-thiophenecarboxylic acid]
8.85	–	O=C(O)c1cc(-c2cnc([C@@H]3CCc4cc(-c5cc(Cl)ccc5-n5cnnn5)cc(=O)n43)[nH]2)cs1 [Example 363, 4-(2-{(3S)-7-[5-chloro-2-(1H-tetrazol-1-yl)phenyl]-5-oxo-1,2,3,5-tetrahydro-3-indolizinyl}-1H-imidazol-5-yl)-2-thiophenecarboxylic acid hydrochloride]
8.80	–	O=C(O)c1ccc(-c2cnc([C@@H]3CCc4c(Cl)c(-c5cc(Cl)ccc5-n5cnnn5)cc(=O)n43)[nH]2)s1 [Example 387, 5-(2-{(3S)-8-chloro-7-[5-chloro-2-(1H-tetrazol-1-yl)phenyl]-5-oxo-1,2,3,5-tetrahydro-3-indolizinyl}-1H-imidazol-5-yl)-2-thiophenecarboxylic acid hydrochloride]
8.96	–	O=C(O)c1cc(-c2cnc([C@@H]3CCc4c(Cl)c(-c5cc(Cl)ccc5-n5cnnn5)cc(=O)n43)[nH]2)cs1 [Example 391, 4-(2-{(3S)-8-chloro-7-[5-chloro-2-(1H-tetrazol-1-yl)phenyl]-5-oxo-1,2,3,5-tetrahydro-3-indolizinyl}-1H-imidazol-5-yl)-2-thiophenecarboxylic acid trifluoroacetate]
8.68	–	O=C(O)c1cc(-c2cnc([C@@H]3CCc4nc(-c5cc(Cl)ccc5-n5cnnn5)cc(=O)n43)[nH]2)cs1 [Example 392, 4-(2-{(6S)-2-[5-chloro-2-(1H-tetrazol-1-yl)phenyl]-4-oxo-4,6,7,8-tetrahydropyrrolo[1,2-a]pyrimidin-6-yl}-1H-imidazol-5-yl)-2-thiophenecarboxylic acid hydrochloride]
8.96	–	O=C(O)c1ccc(-c2[nH]c([C@@H]3CCc4cc(-c5cc(Cl)ccc5-n5cnnn5)cc(=O)n43)nc2F)s1 [Example 399, 5-(2-{(3S)-7-[5-chloro-2-(1H-tetrazol-1-yl)phenyl]-5-oxo-1,2,3,5-tetrahydro-3-indolizinyl}-4-fluoro-1H-imidazol-5-yl)-2-thiophenecarboxylic acid trifluoroacetate]
7.89	–	Cc1cc(-c2cc(Cl)ccc2-n2cnnn2)cc(=O)n1Cc1ncc(-c2csc(C(=O)O)c2)[nH]1 [Example 400, 4-[2-({4-[5-chloro-2-(1H-tetrazol-1-yl)phenyl]-6-methyl-2-oxo-1(2H)-pyridinyl}methyl)-1H-imidazol-5-yl]-2-thiophenecarboxylic acid hydrochloride]
8.80	–	O=C(O)c1scc(-c2cnc([C@@H]3CCc4cc(-c5cc(Cl)ccc5-n5cnnn5)cc(=O)n43)[nH]2)c1F [Example 834, 4-(2-{(3S)-7-[5-chloro-2-(1H-tetrazol-1-yl)phenyl]-5-oxo-1,2,3,5-tetrahydro-3-indolizinyl}-1H-imidazol-5-yl)-3-fluoro-2-thiophenecarboxylic acid]
8.77	–	O=C(O)c1cc(-c2nc(F)c(C3CCc4cc(-c5cc(Cl)ccc5-n5cnnn5)cc(=O)n43)[nH]2)cs1 (centres unmarked) [Example 848, 4-(5-{7-[5-chloro-2-(1H-tetrazol-1-yl)phenyl]-5-oxo-1,2,3,5-tetrahydro-3-indolizinyl}-4-fluoro-1H-imidazol-2-yl)-2-thiophenecarboxylic acid]
